Assay results published in patent US8653064B2, “Crystalline forms of sodium 4-{[9-chloro-7-(2-fluoro-6-methoxyphenyl)-5H-pyrimido[5,4-D][2]benzazepin-2-yl]amino}-2-methoxybenzoate” (Millennium Pharmaceuticals, Inc., priority 2010, dated 2014).

What was measured:
Solubility in water = format: physicochemical
[1] = Gravimetric vapor sorption (GVS); format: physicochemical; conditions: between 0-90% RH, 10% RH intervals, 25° C.

solubility in water (Solubility in water)	uptake (change in weight of the sample) in GVS [1]	Compound
about 8 mg/mL		COc1cc(Nc2ncc3c(n2)-c2ccc(Cl)cc2C(c2c(F)cccc2OC)=NC3)ccc1C(=O)O [Form 2, sodium 4-{[9-chloro-7-(2-fluoro-6-methoxyphenyl)-5H-pyrimido[5,4-d][2]benzazepin-2-yl]amino}-2-methoxybenzoate Form 2]
about 10 μg/mL		COc1cc(Nc2ncc3c(n2)-c2ccc(Cl)cc2C(c2c(F)cccc2OC)=NC3)ccc1C(=O)O [free acid, 4-{[9-chloro-7-(2-fluoro-6-methoxyphenyl)-5H-pyrimido[5,4-d][2]benzazepin-2-yl]amino}-2-methoxybenzoic acid]
about 8 mg/mL		COc1cc(Nc2ncc3c(n2)-c2ccc(Cl)cc2C(c2c(F)cccc2OC)=NC3)ccc1C(=O)O [Form 24, sodium 4-{[9-chloro-7-(2-fluoro-6-methoxyphenyl)-5H-pyrimido[5,4-d][2]benzazepin-2-yl]amino}-2-methoxybenzoate Form 24]
greater than 10 mg/mL	6%	COc1cc(Nc2ncc3c(n2)-c2ccc(Cl)cc2C(c2c(F)cccc2OC)=NC3)ccc1C(=O)O [Form 6, sodium 4-{[9-chloro-7-(2-fluoro-6-methoxyphenyl)-5H-pyrimido[5,4-d][2]benzazepin-2-yl]amino}-2-methoxybenzoate Form 6]
